Legend:
HSV-1 protease = biological target: T1, HSV-1 protease (Human herpesvirus 1, UniProt P10210); experiment: Enzymatic assay for HSV-1 protease (assembly) inhibitor, fluorescence polarization; format: biochemical; conditions: read-out: HSV-1 Enzyme inhibition IC50
T1 construct: 6xHis (N); made in house; host or cells: baculovirus expression system
Outline: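 Fluorescence polarization read-out: after avidin stop, cleavage of a biotinylated DTAF-labelled release-site peptide by recombinant N-His6 HSV-1 protease was compared with no-inhibitor wells. Enzyme and compound were preincubated 30 min, then substrate reacted 60 min, all at room temperature, pH 7.4 citrate buffer with TCEP.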

HCMV = experiment: Antiviral activity 2, plaque formation in HEL cells; format: cell-based, CMV; conditions: Human betaherpesvirus 5, 336 h, 14 days
Procedure: (§1) An Assay Method for Antiviral Activity 2
(§2) The HEL cells were sowed on a 48-well plate and then cultured overnight. The culture supernatant was removed, and 100 μl of 2% FBS-DMEM containing 40 Plaque-forming units of HSV-1, HSV-2, VZV, or CMV was added. A viral solution Was removed 1 hour later, and 500 μl of 2% FBS-DMEM containing 0.5% methylcellulose comprising 50, 25, 12.5, 6.3, 3.2, or 1.6 μM of the test compound was added. In this case, a substance to which 2% FBS-DMEM containing 0.5% methylcellulose not comprising any test compound had been added was designated as a control. In the case of HSV-1, HSV-2, or VZV, incubation was carried out in the presence of 5% CO2 at 37° C. for 3 days. In the case of CMV, incubation was carried out under the same conditions for 14 days. After they were immobilized on formalin and stained with bromophenol blue, the amount of plaque formed was counted, and the ratio of plaque formation of the drug-containing reaction system relative to the control was determined. The concentration of the drug with which the ratio of plaque formation reaches 50% was calculated and determined to be IC50. Concerning HSV-1, an aciclovir-resistant thymidine kinase variant and a DNA polymerase variant were examined in addition to a general aciclovir-sensitive strain.

HSV2 = experiment: as above; format: cell-based, HSV-2; conditions: Human alphaherpesvirus 2, 72 h, 3 days
Procedure: as §1, §2

HSV1 Sensitive strain = experiment: as above; format: cell-based, HSV-1; conditions: Human alphaherpesvirus 1, 72 h, 3 days
Procedure: as §1, §2

[1] = tested on: HSV1 Thimidine kinase variant; experiment: as above; format: cell-based, HSV-1; conditions: Human alphaherpesvirus 1, HEL, 72 h, read-out: Antiviral activity: IC50, HSV1 Thimidine kinase variant
Procedure: as §1, §2

[2] = tested on: HSV1 DNA polymerase variant; experiment: as above; format: cell-based, HSV-1; conditions: Human alphaherpesvirus 1, HEL, 72 h, read-out: Antiviral activity: IC50, HSV1 DNA polymerase variant
Procedure: as §1, §2

HSV-1 = experiment: Antiviral activity, HSV-1 in Vero cells, plaque method; format: cell-based; conditions: Human alphaherpesvirus 1, 20 hours, 90% inhibition of plaque formation
Outline: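 This is a virus-yield read-out. The culture medium was frozen at −80° C and thawed, and the plaques it formed were counted. It came from Vero monolayers infected with 50,000 pfu HSV-1 and then exposed to the compound for 20 h at 37° C. EC90 is the concentration inhibiting 90% of plaque formation relative to the untreated infected control.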

Vero cells = experiment: Cytotoxicity, Vero cells, Alamar Blue; format: cell-based; conditions: 25 μM, 20 hours
Outline: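 Living-cell ratio versus untreated control was read by Alamar Blue absorbance after about 6 h of dye incubation. Before that, Vero cells had received 25 μM test compound in 2% FBS-DMEM for 20 hours at 37 °C under 5% CO2.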

VZV = experiment: Antiviral activity 2, plaque formation in HEL cells; format: cell-based; conditions: Human alphaherpesvirus 3, 72 h, 3 days
Procedure: as §1, §2

Human plasma stability = format: in vitro ADME
Procedure: An Assay Method for Human Plasma Stability Human plasma was thawed, 200 μl each thereof was placed in each cell of a 96-well plate immediately thereafter, and 4 μl of solution of each test compound in 1 mM DMF was added thereto. A microplate reader for fluorescence absorption was used to assay changes in fluorescence, and half life was determined based on the changes.

T1 sequence (P10210 1-247): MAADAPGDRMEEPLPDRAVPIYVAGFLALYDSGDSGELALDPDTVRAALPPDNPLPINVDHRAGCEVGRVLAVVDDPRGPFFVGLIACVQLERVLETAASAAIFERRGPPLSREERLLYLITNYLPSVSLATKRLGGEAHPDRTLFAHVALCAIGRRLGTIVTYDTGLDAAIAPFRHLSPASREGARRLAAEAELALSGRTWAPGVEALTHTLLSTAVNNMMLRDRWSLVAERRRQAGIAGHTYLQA

Row | Compound | IC50 (HSV-1 protease) | IC50 (HCMV) | IC50 (HSV2) | IC50 (HSV1 Sensitive strain) | IC50 [1] | IC50 [2] | EC90 (HSV-1) | Cell viability (% of control) (Vero cells) | IC50 (VZV) | half-life at 19.6 μM (Human plasma stability)
1 | Cc1c(NC(=O)OC(C)(C)C)ccc2nc(N[C@@H](Cc3ccccc3)C(=O)N(C)CCc3ccccn3)oc(=O)c12 [Compound No.21, (5-Methyl-2-{1-[methyl-1S-(2-pyridin-2-yl-ethyl)-carbamoyl]-2-phenyl-ethylamino}-4-oxo-4H-benzo[d][1,3]oxazin-6-yl)-carbamic Acid Tert-Butyl Ester] | 1.5 µM | > 5 µM | 10.7 µM | 6.1 µM | 16.1 µM | 6.9 µM | 5.9 µM | 53.2% | 6.4 µM | 1.78 h
2 | Cc1c(NC(=O)OC(C)(C)C)ccc2nc(NC3(C(=O)N(C)CCc4ccncc4)CCCCC3)oc(=O)c12 [Compound No.129, (5-Methyl-2-{1-[methyl-(2-pyridin-4-yl-ethyl)-carbamoyl]-cyclohexylamino}-4-oxo-4H-benzo[d][1,3]oxazin-6-yl)-carbamic acid tert-butyl ester] | 1.1 µM | > 5 µM | 10.3 µM | 5.8 µM | 17.7 µM | 8.7 µM | 5.8 µM | – | > 5 µM | > 15 h
3 | Cc1c(NC(=O)OC(C)(C)C)ccc2nc(N(C)[C@@H](Cc3ccccc3)C(=O)NCc3ccccn3)oc(=O)c12 [Compound No.22, [5-Methyl-2-(methyl-{2-phenyl-1S-[(pyridin-2-ylmethyl)-carbamoyl]-ethyl}-amino)-4-oxo-4H-benzo[d][1,3]oxazin-6-yl]-carbamic Acid Tert-Butyl Ester] | 1.8 µM | > 25 µM | 16.6 µM | 9.5 µM | 16.3 µM | 14.3 µM | 9 µM | 66.5% | > 25 µM | 3.02 h
